Results: PubChem BioAssay (NCI)
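Following 48 hours of exposure in 96-well plates, responses at five concentrations were used to interpolate endpoints linearly. At the GI50, growth is halved. TGI is the concentration that stops growth completely.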

How the values were obtained:
Assay in all cases: growth of human tumour cells (NCI), 48 h; in the data active = GI50 below about 0.43 µM; inactive = the rest
SF-268 CNS = tested on: SF-268 CNS
COLO 205 colon = tested on: COLO 205 colon
NCI-H522 lung = tested on: NCI-H522 lung
MALME-3M melanoma = tested on: MALME-3M melanoma
786-0 renal = tested on: 786-0 renal
SF-539 CNS = tested on: SF-539 CNS
NCI/ADR-RES ovarian = tested on: NCI/ADR-RES ovarian
UACC-257 melanoma = tested on: UACC-257 melanoma
ACHN renal = tested on: ACHN renal
SK-MEL-5 melanoma = tested on: SK-MEL-5 melanoma
SN12C renal = tested on: SN12C renal
LOX IMVI melanoma = tested on: LOX IMVI melanoma
SK-MEL-28 melanoma = tested on: SK-MEL-28 melanoma
NCI-H460 lung = tested on: NCI-H460 lung
DU-145 prostate = tested on: DU-145 prostate
MDA-MB-435 = tested on: MDA-MB-435
MCF7 breast = tested on: MCF7 breast
OVCAR-5 ovarian = tested on: OVCAR-5 ovarian
SW-620 colon = tested on: SW-620 colon
TK-10 renal = tested on: TK-10 renal
HT29 colon = tested on: HT29 colon
HCT-116 colon = tested on: HCT-116 colon
A549 NSCLC = tested on: A549 NSCLC
MOLT-4 leukemia = tested on: MOLT-4 leukemia
SK-MEL-2 melanoma = tested on: SK-MEL-2 melanoma
NCI-H226 lung = tested on: NCI-H226 lung
PC-3 prostate = tested on: PC-3 prostate
UACC-62 melanoma = tested on: UACC-62 melanoma
OVCAR-8 ovarian = tested on: OVCAR-8 ovarian
K-562 leukemia = tested on: K-562 leukemia
M14 melanoma = tested on: M14 melanoma
OVCAR-4 ovarian = tested on: OVCAR-4 ovarian
A498 renal = tested on: A498 renal
KM12 colon = tested on: KM12 colon
SK-OV-3 ovarian = tested on: SK-OV-3 ovarian
CCRF-CEM leukemia = tested on: CCRF-CEM leukemia
HS 578T breast = tested on: HS 578T breast
SR leukemia = tested on: SR leukemia
OVCAR-3 ovarian = tested on: OVCAR-3 ovarian
IGROV1 ovarian = tested on: IGROV1 ovarian
HOP-92 NSCLC = tested on: HOP-92 NSCLC
MDA-MB-231 breast = tested on: MDA-MB-231 breast
SNB-19 CNS = tested on: SNB-19 CNS
BT-549 breast = tested on: BT-549 breast
T-47D breast = tested on: T-47D breast
SF-295 CNS = tested on: SF-295 CNS
U251 CNS = tested on: U251 CNS
NCI-H23 lung = tested on: NCI-H23 lung
HCC-2998 colon = tested on: HCC-2998 colon
HL-60(TB) leukemia = tested on: HL-60(TB) leukemia
RXF 393 renal = tested on: RXF 393 renal
HOP-62 NSCLC = tested on: HOP-62 NSCLC
CAKI-1 renal = tested on: CAKI-1 renal
UO-31 renal = tested on: UO-31 renal
HCT-15 colon = tested on: HCT-15 colon
EKVX NSCLC = tested on: EKVX NSCLC

CNNC(=N\S(=O)(=O)c1cc(C(=O)Nc2ccc(Cl)cc2)c(Cl)cc1SCc1ccccc1)/N=C/c1ccc([N+](=O)[O-])s1
> 27.7 µM: TGI (NCI-H460 lung)
62.2 µM: TGI (HOP-92 NSCLC)
> 100 µM: TGI (SF-268 CNS) | TGI (COLO 205 colon) | TGI (NCI-H522 lung) | TGI (MALME-3M melanoma) | TGI (786-0 renal) | TGI (SF-539 CNS) | TGI (NCI/ADR-RES ovarian) | TGI (UACC-257 melanoma) | TGI (ACHN renal) | TGI (SN12C renal) | TGI (LOX IMVI melanoma) | TGI (SK-MEL-28 melanoma) | TGI (DU-145 prostate) | TGI (MDA-MB-435) | TGI (MCF7 breast) | TGI (OVCAR-5 ovarian) | TGI (SW-620 colon) | TGI (TK-10 renal) | TGI (HT29 colon) | TGI (HCT-116 colon) | TGI (A549 NSCLC) | TGI (MOLT-4 leukemia) | TGI (SK-MEL-2 melanoma) | TGI (NCI-H226 lung) | TGI (PC-3 prostate) | TGI (UACC-62 melanoma) | TGI (OVCAR-8 ovarian) | TGI (K-562 leukemia) | TGI (M14 melanoma) | TGI (OVCAR-4 ovarian) | TGI (A498 renal) | TGI (KM12 colon) | TGI (SK-OV-3 ovarian) | TGI (CCRF-CEM leukemia) | TGI (HS 578T breast) | TGI (SR leukemia) | TGI (OVCAR-3 ovarian) | TGI (IGROV1 ovarian) | TGI (MDA-MB-231 breast) | TGI (SNB-19 CNS) | TGI (BT-549 breast) | TGI (T-47D breast) | TGI (SF-295 CNS) | TGI (U251 CNS) | TGI (NCI-H23 lung) | TGI (HCC-2998 colon) | TGI (HL-60(TB) leukemia) | TGI (RXF 393 renal) | TGI (HOP-62 NSCLC) | TGI (CAKI-1 renal) | TGI (UO-31 renal) | TGI (HCT-15 colon) | TGI (EKVX NSCLC)
> 45.9 µM: TGI (SK-MEL-5 melanoma)
inactive: GI50 (SF-268 CNS) > 100 µM | GI50 (COLO 205 colon) 8.97 µM | GI50 (NCI-H522 lung) > 100 µM | GI50 (MALME-3M melanoma) > 100 µM | GI50 (786-0 renal) > 100 µM | GI50 (SF-539 CNS) > 100 µM | GI50 (NCI/ADR-RES ovarian) > 100 µM | GI50 (UACC-257 melanoma) > 100 µM | GI50 (ACHN renal) > 100 µM | GI50 (SK-MEL-5 melanoma) 6.57 µM | GI50 (SN12C renal) 6.6 µM | GI50 (LOX IMVI melanoma) > 100 µM | GI50 (SK-MEL-28 melanoma) > 100 µM | GI50 (NCI-H460 lung) 3.91 µM | GI50 (DU-145 prostate) > 20.3 µM | GI50 (MDA-MB-435) 23.4 µM | GI50 (MCF7 breast) > 100 µM | GI50 (OVCAR-5 ovarian) > 100 µM | GI50 (SW-620 colon) > 20.9 µM | GI50 (TK-10 renal) > 100 µM | GI50 (HT29 colon) > 28.2 µM | GI50 (HCT-116 colon) 2.3 µM | GI50 (A549 NSCLC) 20.5 µM | GI50 (MOLT-4 leukemia) > 100 µM | GI50 (SK-MEL-2 melanoma) > 100 µM | GI50 (NCI-H226 lung) > 100 µM | GI50 (PC-3 prostate) > 100 µM | GI50 (UACC-62 melanoma) > 100 µM | GI50 (OVCAR-8 ovarian) > 100 µM | GI50 (K-562 leukemia) 15.9 µM | GI50 (M14 melanoma) 10.1 µM | GI50 (OVCAR-4 ovarian) > 100 µM | GI50 (A498 renal) > 100 µM | GI50 (KM12 colon) > 100 µM | GI50 (SK-OV-3 ovarian) > 100 µM | GI50 (CCRF-CEM leukemia) > 85.1 µM | GI50 (HS 578T breast) 38.2 µM | GI50 (SR leukemia) > 100 µM | GI50 (OVCAR-3 ovarian) > 100 µM | GI50 (IGROV1 ovarian) > 70.1 µM | GI50 (HOP-92 NSCLC) 4.54 µM | GI50 (MDA-MB-231 breast) 6.2 µM | GI50 (SNB-19 CNS) > 100 µM | GI50 (BT-549 breast) > 100 µM | GI50 (T-47D breast) 7.07 µM | GI50 (SF-295 CNS) > 100 µM | GI50 (U251 CNS) > 100 µM | GI50 (NCI-H23 lung) > 100 µM | GI50 (HCC-2998 colon) 2.83 µM | GI50 (HL-60(TB) leukemia) > 100 µM | GI50 (RXF 393 renal) > 100 µM | GI50 (HOP-62 NSCLC) > 36 µM | GI50 (CAKI-1 renal) > 100 µM | GI50 (UO-31 renal) > 100 µM | GI50 (HCT-15 colon) 22.5 µM | GI50 (EKVX NSCLC) > 54.4 µM
